Experimental data published in ChEMBL document CHEMBL1128042, “The effect of fluorine substitution on the haemotoxicity of Primaquine” (1995).

Species: Mus musculus
Assay: Antimalarial activity was evaluated against Plasmodium berghei in female CD1 mice (Mus musculus) (20-25g)
Type: functional

## COc1cc(NC(C)CCCN)c2ncccc2c1F (configuration not stated)
  ED50: 7.78 µmol/kg

## COc1cc(NC(C)CCCN)c2ncccc2c1 (configuration not stated) [PRIMAQUINE]
  ED50: 2.2 µmol/kg
